Assay results published in PubChem BioAssay AID2060901 (Molecular Pharmacology Branch, DTP, NCI, 2025).
Blank lines part the entries; values can stand above or below the molecule they belong to.

Tested on: 422866-222-R5-J1-PDC complex spheroids viability
Assay: Anticancer human tumor 422866-222-R5-J1-PDC patient-derived pancreatic adenocarcinoma cell line growth inhibition [RAS]
Conditions: for IC50: curve of first compound; for viability, T/C: stronger effect = lower value
Outline: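 Agents were tested in combination matrices in half-log decrements from a top concentration at or near clinical Cmax (10 microM if undetermined). Targets were multi-cell spheroids of tumour lines plus HUVEC and MSC stromal cells.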
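Further: spheroids exposed to compounds for 7 days.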
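Wherever viability, T/C is given: 100% = DMSO vehicle control viability.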

IC50 (second compound 0.000949 µM): < 0.949 nM | IC50 (second compound 0.003 µM): < 0.949 nM | IC50 (second compound 0.00949 µM): < 0.949 nM | IC50 (second compound 0.03 µM): < 0.949 nM | IC50 (second compound 0.0949 µM): < 0.949 nM | IC50 (second compound 0.3 µM): < 0.949 nM
Structure (SMILES): CCc1c2c(nc3ccc(O)cc13)-c1cc3c(c(=O)n1C2)COC(=O)[C@]3(O)CC + CCn1c(-c2cc(N3CCN(C)CC3)cnc2C(C)OC)c2c3cc(ccc31)-c1csc(n1)CC(NC(=O)C1CC1C)C(=O)N1CCCC(N1)C(=O)OCC(C)(C)C2
viability, T/C (second compound 0.000949 µM, first compound 0.000949 µM): 25.3% | viability, T/C (second compound 0.000949 µM, first compound 0.003 µM): 20.3% | viability, T/C (second compound 0.000949 µM, first compound 0.00949 µM): 21.6% | viability, T/C (second compound 0.000949 µM, first compound 0.03 µM): 19.5% | viability, T/C (second compound 0.000949 µM, first compound 0.0949 µM): 17.7% | viability, T/C (second compound 0.000949 µM, first compound 0.3 µM): 12.6% | viability, T/C (second compound 0.003 µM, first compound 0.000949 µM): 22.5% | viability, T/C (second compound 0.003 µM, first compound 0.003 µM): 17% | viability, T/C (second compound 0.003 µM, first compound 0.00949 µM): 15.4% | viability, T/C (second compound 0.003 µM, first compound 0.03 µM): 16.7% | viability, T/C (second compound 0.003 µM, first compound 0.0949 µM): 14.1% | viability, T/C (second compound 0.003 µM, first compound 0.3 µM): 8.32% | viability, T/C (second compound 0.00949 µM, first compound 0.000949 µM): 18.9% | viability, T/C (second compound 0.00949 µM, first compound 0.003 µM): 14.7% | viability, T/C (second compound 0.00949 µM, first compound 0.00949 µM): 13.8% | viability, T/C (second compound 0.00949 µM, first compound 0.03 µM): 13.2% | viability, T/C (second compound 0.00949 µM, first compound 0.0949 µM): 11.3% | viability, T/C (second compound 0.00949 µM, first compound 0.3 µM): 7.61% | viability, T/C (second compound 0.03 µM, first compound 0.000949 µM): 16.6% | viability, T/C (second compound 0.03 µM, first compound 0.003 µM): 15.6% | viability, T/C (second compound 0.03 µM, first compound 0.00949 µM): 14.6% | viability, T/C (second compound 0.03 µM, first compound 0.03 µM): 12.8% | viability, T/C (second compound 0.03 µM, first compound 0.0949 µM): 10% | viability, T/C (second compound 0.03 µM, first compound 0.3 µM): 6.17% | viability, T/C (second compound 0.0949 µM, first compound 0.000949 µM): 17% | viability, T/C (second compound 0.0949 µM, first compound 0.003 µM): 15% | viability, T/C (second compound 0.0949 µM, first compound 0.00949 µM): 13.8% | viability, T/C (second compound 0.0949 µM, first compound 0.03 µM): 12.5% | viability, T/C (second compound 0.0949 µM, first compound 0.0949 µM): 9.66% | viability, T/C (second compound 0.0949 µM, first compound 0.3 µM): 6.78% | viability, T/C (second compound 0.3 µM, first compound 0.000949 µM): 16.2% | viability, T/C (second compound 0.3 µM, first compound 0.003 µM): 15.7% | viability, T/C (second compound 0.3 µM, first compound 0.00949 µM): 16.8% | viability, T/C (second compound 0.3 µM, first compound 0.03 µM): 12.8% | viability, T/C (second compound 0.3 µM, first compound 0.0949 µM): 10.1% | viability, T/C (second compound 0.3 µM, first compound 0.3 µM): 5.7%

IC50 (second compound 0.000949 µM): < 3.16 nM | IC50 (second compound 0.003 µM): < 3.16 nM | IC50 (second compound 0.00949 µM): < 3.16 nM | IC50 (second compound 0.03 µM): < 3.16 nM | IC50 (second compound 0.0949 µM): < 3.16 nM | IC50 (second compound 0.3 µM): < 3.16 nM
Structure (SMILES): C=CC(=O)Nc1cc(Nc2nccc(-c3cn(C)c4ccccc34)n2)c(OC)cc1N(C)CCN(C)C + CCn1c(-c2cccnc2C(C)OC)c2c3cc(ccc31)N1CCOC(CC(NC(=O)C(C(C)C)N(C)C(=O)C3(F)CCN(C(=O)C#CC(C)(C)N(C)C)CC3)C(=O)N3CCCC(N3)C(=O)OCC(C)(C)C2)C1
viability, T/C (second compound 0.000949 µM, first compound 0.00316 µM): 26.2% | viability, T/C (second compound 0.000949 µM, first compound 0.01 µM): 27.5% | viability, T/C (second compound 0.000949 µM, first compound 0.0316 µM): 26.2% | viability, T/C (second compound 0.000949 µM, first compound 0.1 µM): 23% | viability, T/C (second compound 0.000949 µM, first compound 0.316 µM): 19.7% | viability, T/C (second compound 0.000949 µM, first compound 1 µM): 22.6% | viability, T/C (second compound 0.003 µM, first compound 0.00316 µM): 25% | viability, T/C (second compound 0.003 µM, first compound 0.01 µM): 19.2% | viability, T/C (second compound 0.003 µM, first compound 0.0316 µM): 23.7% | viability, T/C (second compound 0.003 µM, first compound 0.1 µM): 16.8% | viability, T/C (second compound 0.003 µM, first compound 0.316 µM): 14.6% | viability, T/C (second compound 0.003 µM, first compound 1 µM): 15.2% | viability, T/C (second compound 0.00949 µM, first compound 0.00316 µM): 21.9% | viability, T/C (second compound 0.00949 µM, first compound 0.01 µM): 21.4% | viability, T/C (second compound 0.00949 µM, first compound 0.0316 µM): 17.2% | viability, T/C (second compound 0.00949 µM, first compound 0.1 µM): 16.4% | viability, T/C (second compound 0.00949 µM, first compound 0.316 µM): 13.8% | viability, T/C (second compound 0.00949 µM, first compound 1 µM): 16.4% | viability, T/C (second compound 0.03 µM, first compound 0.00316 µM): 29.2% | viability, T/C (second compound 0.03 µM, first compound 0.01 µM): 19.8% | viability, T/C (second compound 0.03 µM, first compound 0.0316 µM): 14.6% | viability, T/C (second compound 0.03 µM, first compound 0.1 µM): 15.8% | viability, T/C (second compound 0.03 µM, first compound 0.316 µM): 15.9% | viability, T/C (second compound 0.03 µM, first compound 1 µM): 15.4% | viability, T/C (second compound 0.0949 µM, first compound 0.00316 µM): 18.7% | viability, T/C (second compound 0.0949 µM, first compound 0.01 µM): 16.2% | viability, T/C (second compound 0.0949 µM, first compound 0.0316 µM): 15.5% | viability, T/C (second compound 0.0949 µM, first compound 0.1 µM): 11.9% | viability, T/C (second compound 0.0949 µM, first compound 0.316 µM): 13.5% | viability, T/C (second compound 0.0949 µM, first compound 1 µM): 13.1% | viability, T/C (second compound 0.3 µM, first compound 0.00316 µM): 15.2% | viability, T/C (second compound 0.3 µM, first compound 0.01 µM): 15.7% | viability, T/C (second compound 0.3 µM, first compound 0.0316 µM): 17.4% | viability, T/C (second compound 0.3 µM, first compound 0.1 µM): 13.8% | viability, T/C (second compound 0.3 µM, first compound 0.316 µM): 13.7% | viability, T/C (second compound 0.3 µM, first compound 1 µM): 13.2%
